From patent publication US6706721B1, “N-(3-ethynylphenylamino)-6,7-bis(2-methoxyethoxy)-4-quinazolinamine mesylate anhydrate and monohydrate” (OSI Pharmaceuticals, Inc., priority 1998, dated 2004)

Legend:
hygroscopicity = format: physicochemical
[1] = resistance to thermal degradation; format: physicochemical

**Q.** Which hygroscopicity (hygroscopicity) does the source give for `C#Cc1cccc(Nc2ncnc3cc(OCCOC)c(OCCOC)cc23)c1.CS(=O)(=O)O` [Polymorph C, N-(3-ethynylphenyl)-6,7-bis(2-methoxyethoxy)-4-quinazolinamine Mesylate Salt] here?
**A.** essentially non-hygroscopic

**Q.** And the thermal degradation [1]?
**A.** resistance to thermal degradation
